The record followed here is patent US20230391871A1, “MONOAMINE OXIDASE BLOCKADE THERAPY FOR TREATING CANCER THROUGH REGULATING TUMOR ASSOCIATED MACROPHAGES (TAMS)” (THE REGENTS OF THE UNIVERSITY OF CALIFORNIA, priority 2020, published 2023).

Assay [1] has as its system wildtype BMDMs (bone marrow-derived macrophages). Description: In vitro WT BMDM IL-4/IL-13-induced polarization culture with MAOI treatment. In kind it is cell-based, mouse. As to conditions: IL-4/IL-13-stimulated WT BMDMs, 24 h. As for the experimental part: (a) Experimental design. Wildtype BMDMs were stimulated with IL-4/IL-13 with or without MAOI treatment. MAOIs (monoamine oxidase inhibitors) studied were phenelzine (Phe: 20 μM), clorgyline (Clo: 20 μM), moclobemide (Moc: 200 μM), and pirlindole (Pir: 20 μM). NT, no MAOI treatment. (b) FACS analyses of ROS levels in BMDMs. (c) FACS analyses of CD206 expression on BMDMs. (d,e) QPCR analyses of Chi313 (d) and Arg1 (e) mRNA expression in BMDMs. f-j, Studying the TAM-related cancer immunotherapy potential of MAOI treatment in a B16-OVA melanoma syngeneic mouse tumour model (n=7-8). (f) Experimental design. B6 wildtype mice were treated with clodronate liposomes (Clod) to serve as TAM-depleted experimental mice, or treated with vehicle liposomes (Veh) to serve as TAM-intact control mice. Phe, phenelzine treatment: NT, no phenelzine treatment. (g) Tumour growth. (h) Tumour volume at day 18. (i) FACS analyses of CD206 expression on TAMs of TAM-intact experimental mice. (j) FACS analyses of intracellular Granzyme B production in tumour-infiltrating CD8^+ T cells of all experimental mice. k-o, Studying the cancer therapy potential of MAOI treatment in combination with anti-PD-1 treatment in the B16-OVA melanoma and MC38 colon cancer syngeneic mouse tumour models (n=5). (k) Experimental design. Tumour-bearing mice were treated with anti-PD-1 antibody (aPD-1) or isotype control (Iso), together with or without phenelzine (Phe) treatment. NT, no Phe treatment. (l) B16-OVA tumour growth. (m) B16-OVA tumour volume at day 18. (n) MC38 tumour growth. (o) MC38 tumour volume at day 27. Representative of 3 experiments. All data are presented as the mean±SEM. ns, not significant, *P<0.05, **P<0.01, and ***P<0.001, by I-way ANOVA (b-e, h, j, m, o) or by Student's t test (i).
(§1) To generate BMDMs, BM cells were collected from femurs and tibias of Maoa WT mice and Maoa KO mice, and were cultured in C10 medium containing with 20% of L929-conditional medium in a 10-cm dish (2×10^6 cells per ml: 12 ml per dish) for 6 days. At day 6, the resulting BMDMs were collected and reseeded in a 6-well plate (1×10^6 cells per ml: 2 ml per well) in C10 medium for 24 hours, in the presence or absence of recombinant murine IL-4 (10 ng/ml) (Peprotech, 200-04) and IL-13 (10 ng/ml) (Peprotech, 200-13) to induce BMDM immunosuppressive polarization.
In some experiments, MAOIs were added to the Maoa WT BMDM polarization culture 30 minutes prior to adding recombinant murine IL-4 and IL-13, to block MAO-A activity during BMDM polarization. MAOIs studied were phenelzine (Phe, 20 μM) (Sigma-Aldrich), clorgyline (Clo, 20 μM) (Sigma-Aldrich), moclobemide (Moc, 200 μM) (Sigma-Aldrich), and pirlindole (Pir, 20 μM) (R&D Systems). At 24 hours after IL-4/IL-13 stimulation, BMDMs were collected for analysis.
Cells were stained with surface marker antibodies, washed with PBS, then resuspended in pre-warmed PBS (1×10^6 cells/ml/tube) containing 1 μM CM-H2DCFDA (Thermo Fisher Scientific, C6827). After 15 minutes incubation at room temperature, cells were immediately washed with cold PBS followed by flow cytometry analysis. ROS levels were measured by oxidation of the CM-H2DCFDA probes that can be read out as the fluorescence intensity at the FITC/488 channel of a flow cytometer. Single cell RNA sequencing (scRNAseq) scRNASeq was used to analyze the gene expression profiles of TIIs. B16-OVA tumours were harvested from Maoa WT and Maoa KO mice to prepare TII suspensions (10 tumours were combined for each group). TII suspensions were then sorted using a FACSAria II flow cytometer to purify immune cells (gated as DAPI-CD45.2^+ cells). Sorted TIIs were immediately delivered to the Technology Center for Genomics & Bioinformatics (TCGB) facility at UCLA for library construction and sequencing.

For assay [2], the system named is Maoa WT and Maoa KO BMDMs. Description: Maoa WT and Maoa KO BMDM IL-4/IL-13 polarization with H2O2 or tyramine supplement. In kind it is cell-based, mouse.
Description: MAO-A breaks down monoamines and generates hydrogen peroxide (H2O2) as a byproduct, thereby increasing reactive oxygen species (ROS) levels in a TAM. b,c, Studying the in vivo ROS levels in TAMs isolated from Mao WT and Mao KO mice bearing B16-OVA tumours (n=4). (b) Experimental design. (c) FACS analyses of ROS levels in Maoa WT and Maoa KO TAMs at day 18. TAMs were gated as the CD45.2^+CD11b^+Ly6G^−Ly6C^−/lowF4/80^+ cells of total tumour-infiltrating immune cells (TIIs). d, FACS analyses of ROS levels in in vitro-cultured Maoa WT and Maoa KO BMDMs, […] IL-4/IL-13 polarization for 24 hours (n=4). NC, no cytokine-treated control BMDMs: IL-4/IL-13, IL-4/IL-13-polarized BMDMs. e-g, Studying the phenotype of IL-4/IL-13-polarized Maoa WT and Maoa KO BMDMs with or without H2O2 treatment (n=3). BMDMs were treated with H2O2 for 30 minutes prior to IL-4/IL-13 polarization for 24 hours. (e) FACS analyses of CD206 expression on BMDMs. (f,g) QPCR analyses of Chi313 (f) and Arg1 (g) mRNA expression in BMDMs. h-j, Studying the phenotype of IL-4/IL-13-polarized Maoa WT and Maoa KO BMDMs with or without tyramine supplement (n=3). BMDMs were treated with tyramine for 30 minutes prior to IL-4/IL-13 polarization for 24 hours. (h) FACS analyses of ROS levels in BMDMs. (i,j) QPCR analyses of Chi3/3 (i) and Arg1 (j) mRNA expression in BMDMs. k,l, Studying the in vivo Stat6 signaling in TAMs isolated from Mao WT and Mao KO mice bearing B16-OVA tumours (combined from 5 mice per group). (k) Experimental design. (l) Western blot analyses of Stat6 phosphorylation in TAMs at day 18. TAMs were FACS sorted as the DAPI^−CD45.2^+CD11b^+Ly6G^−Ly6C^−/lowF4/80^+ cells from total TIIs. m, Western blot analyses of JAK-Stat6 signaling in in vitro-cultured Maoa WT and Maoa KO BMDMs, with or without IL-4/IL-13 polarization and H2O2 treatment. BMDMs were treated with H2O2 for 30 minutes prior to IL-4/IL-13 stimulation for another 30 minutes. Representative of 3 experiments. All data are presented as the mean±SEM. ns, not significant, *P<0.05, **P<0.01, and ***P<0.001, by 2-way ANOVA (d-j) or by Student's t test (c).
[…] BMDMs (denoted as WT and KO, respectively) were treated with H2O2 for 30 minutes followed by IL-4/IL-13 stimulation for another 30 minutes. BMDMs were then collected for FACS analysis. N=4. a, FACS plots showing ROS levels in the indicated BMDMs. b, Quantification of A. Representative of 2 experiments. All data are presented as the mean±SEM. ns, not significant, ***P<0.001, by 2-way ANOVA (b).
as §1
In some experiments, H2O2 (100 μM) were added to the Maoa WT and Maoa KO BMDM polarization culture 30 minutes prior to adding recombinant murine IL-4 and IL-13. At 30 minutes after IL-4/IL-13 stimulation, BMDMs were collected for WB analysis: at 24 hours after IL-4/IL-13 stimulation, BMDMs were collected for flow cytometry and QPCR analysis.
In some experiments, tyramine (100 μM) (Sigma-Aldrich, T90344) were added to the Maoa WT and Maoa KO BMDM polarization culture 30 minutes prior to adding recombinant murine IL-4 and IL-13. At 24 hours after IL-4/IL-13 stimulation, BMDMs were collected for flow cytometry and QPCR analysis.

Setting [3] is: MAOI 20 μM added 30 min before cytokines.
Setting [4] is: Maoa KO BMDMs, tyramine 100 μM, 30 min before IL-4/IL-13, 24 h.
The mark [5] stands for this setting: Maoa WT BMDMs, tyramine 100 μM, 30 min before IL-4/IL-13, 24 h.
Where [6] appears, read: IL-4/IL-13-stimulated Maoa WT and KO BMDMs, H2O2 100 μM, 24 h.

SMILES strings stand for the structures.

Consider `O=C(NCCN1CCOCC1)c1ccc(Cl)cc1` [mocolobemide, moclobemide], for which, in assay [1] (MAOI 200 μM added 30 min before cytokines), the “ROS levels in BMDMs (FACS)” value is recorded as “efficiently reduced”. Also, in assay [1] (MAOI 200 μM), the “Arg1 mRNA expression in BMDMs (QPCR)” value was “decreased expression”, the “CD206 expression on BMDMs (FACS)” value was “decreased expression”, the “Chi313 mRNA expression in BMDMs (QPCR)” value is “decreased expression” and the “immunosuppressive polarization of BMDMs” value is “suppressed”.

With `Cc1ccc2c(c1)c1c3n2CCNC3CCC1` (centres unmarked) [pirlindole], in assay [1] (setting [3]), the “ROS levels in BMDMs (FACS)” value is listed as “efficiently reduced”. Moreover, in assay [1] (MAOI 20 μM), the “Arg1 mRNA expression in BMDMs (QPCR)” value was “decreased expression”, the “CD206 expression on BMDMs (FACS)” value was “decreased expression”, the “Chi313 mRNA expression in BMDMs (QPCR)” value is listed as “decreased expression” and the “immunosuppressive polarization of BMDMs” value was “suppressed”.

With `NCCc1ccc(O)cc1` [tyramine], in assay [2] (setting [4]), the “increase of ROS levels in BMDMs” value was “not”, the “upregulation of Arg1 mRNA expression in BMDMs” value is listed as “not” and the “upregulation of Chi313 mRNA expression in BMDMs” value was “not”. In assay [2] (setting [5]), the “Arg1 mRNA expression in BMDMs” value is on record as “upregulated”, the “Chi313 mRNA expression in BMDMs” value is “upregulated” and the “ROS levels in BMDMs” value is “increased”.

In the case of `OO` [H2O2, hydrogen peroxide], the “JAK-Stat6 signaling (JAK1, JAK2, JAK3, Stat6 phosphorylation, Western blot)” value in assay [2] (IL-4/IL-13-stimulated Maoa WT and KO BMDMs, H2O2 100 μM, 30 min stimulation, to similar levels) was “increased”. In assay [2] (setting [6]), the “Maoa WT vs KO difference in Arg1 expression” value was “eliminated their differences”, the “Maoa WT vs KO difference in CD206 expression” value was “eliminated their differences” and the “Maoa WT vs KO difference in Chi313 expression” value is “eliminated their differences”. For the same compound, the “intracellular ROS in BMDMs” value in assay [2] (IL-4/IL-13-stimulated Maoa WT and KO BMDMs, H2O2 100 μM, to similar levels) is on record as “elevated”.

In the case of `C#CCN(C)CCCOc1ccc(Cl)cc1Cl` [clorgyline], the “ROS levels in BMDMs (FACS)” value in assay [1] (setting [3]) is listed as “efficiently reduced”. In assay [1] (MAOI 20 μM), the “Arg1 mRNA expression in BMDMs (QPCR)” value is “decreased expression”, the “CD206 expression on BMDMs (FACS)” value was “decreased expression”, the “Chi313 mRNA expression in BMDMs (QPCR)” value was “decreased expression” and the “immunosuppressive polarization of BMDMs” value is listed as “suppressed”.
